Assay results from patent US11980667B2, “Short TAT oligomers for drug delivery” (The Trustees of Columbia University in the City of New York, priority 2017, dated 2024).

Tests used:
9L glioma tumors [1] = conditions: IA-TCH, 1 mL of 0.5 mg/mL, 15 minutes
Description: In a separate experiment, 14 days post-implantation of 9L glioma tumors, eight rats were anesthetized and prepared for IA-TCH. Blood flow reduction for TCH was achieved by bolus IV injection of adenosine and esmolol that were flushed with cold saline. […] Animals were sacrificed 15 minutes after TAT injection. Brain tissue was harvested. Gross sections were imaged with multi-spectral imaging (MSI) system using a photon counting cooled fluorescence camera. A 490 nm light was used for excitation while 525 nm filter was used for imaging the emitted light.

9L glioma tumors [2] = conditions: four arrest cycles IA-TCH; single arrest from historical controls
Description: Multiple Arrest Study. 9L glioma tumors were implanted into five rats. 14 days post-implantation, the rats were anesthetized and prepared for the injections. Blood flow reduction was achieved by bolus IV injection of adenosine and esmolol that were flushed with cold saline. Four arrest cycles were used to deliver fluorescein-conjugated TAT monomer via intra-arterial injection with a 5 minute recovery period between each arrest. Animals were sacrificed 15 minutes after injection. Brain tissues were harvested an imaged using a multi-spectral imaging system using a photon counted cooled fluorescence camera. A 470 nm light was used for excitation while a 530 nm filter was used for imaging the emitted light.

[3] = Physiological changes during IA-TCH and IV delivery; type: in vivo, rat
Excerpt: (§1) Comparison of […] and IV TAT delivery. Fisher 344 rats weighing about 200 g were utilized. During initial surgery under ketamine-xylazine isoflurane anesthesia 5×10^5 9 L cells were implanted 3 mm below the skull and 2-3 mm posterior and lateral to the bregma through a 1 mm craniotomy. […] The animals were assigned separately to IV and IA-TCH groups. On the day of drug delivery, animals were sedated with isoflurane and injected with ketamine/xylazine. The tail vein was cannulated for intravenous access. Under aseptic precautions, a tracheostomy and carotid cannulation were performed. Anesthesia was maintained by mechanical ventilation with isoflurane (1.8-2.2%). Thereafter animals were turned prone on a stereotactic frame. The skull was exposed and the region of tumor implantation was shaved to transparency. A laser Doppler probe was implanted on the skull with the aid of a plastic holder to assess cerebral/tumor blood flow. Rectal temperature, pulse pleth (volume), pulse oxygen saturation, EKG, expired and inspired gas composition, brain and skin blood flow with lase Doppler were continuously monitored.
(§2) Transient cerebral hypoperfusion and fluorescein-labeled TAT monomer injection. IA injections were made during TCH by the following method. Reduction of blood flow was achieved by bolus IV injections of adenosine (2 mg) and esmolol (2 mg), and cold saline (1.5 mL at 4° C.). Typically such an intervention decreases cerebral blood flow to about 20% of the baseline. The heart rate response varies from sinus bradycardia to a sinus pause. However, physiological parameters rapidly recover within 3-5 minutes. […] For each animal, a test IA injection was done prior to the onset of hypotension to ensure delivery of the desired injection volume and the injection sequence was resumed after bolus IV injections of hypotensive drugs.
Physiological parameters. Key parameters included inspired and expired gas composition, laser Doppler skin and brain/tumor blood flow, EKG for heart rate, pleth pulse, oxygen saturation, and rectal temperature which were continuously monitored. Data were analyzed at four time points: baseline, at the time of IA injection, 5 minutes after the start of injection, and at the end of the experiment. […] Immediately after sacrifice, brain tissue was harvested for imaging. All physiological data was recorded at 200 Hz by a Mac Lab data collection system.

9L glioma = assay: IA-TCH versus IV delivery: uptake by confocal microscopy imaging of frozen sections; type: in vivo, rat; conditions: n = 6
Excerpt: as §1, §2
Frozen sections (10 μm thick) were imaged under a Nikon confocal microscope with 470 nm excitation. Due to the large size of the tissue sample, small sections of images were obtained and then assembled together. An adjacent section was stained with hematoxylin and eosin to confirm the size and location of the tumor. The total fluorescence in the tumor region, in the non-tumor ipsi-lateral hemisphere, and in the corresponding region contra-lateral to the tumor was quantified. The contra-lateral hemisphere was used for background correction.

C6 glioma = conditions: IA-TCH, 0.5 mg, N=3
Description: For in vivo tumor delivery studies, rats were implanted with C6 brain tumor cells as previously described. […] They were scarified 10 minutes later and the brains were harvested and sectioned.
Fluorescence and electron multiplying charge-coupled device imaging. Fluorescence imaging was done with a white light excitation through a 470 nm filter with central frequency. Emission was observed through a 520 nm band pass filter using a fluorescence camera (Prosilica GE™ AVI Technologies Inc.). All images were normalized to the background and to the injected FITC-TAT concentrations—a sample of which was imaged alongside in a capillary tube.

In the case of N=C(N)NCCC[C@H](NC(=O)CNC(=O)c1ccc2c(c1)C(=O)OC21c2ccc(O)cc2Oc2cc(O)ccc21)C(=O)N[C@@H](CCCCN)C(=O)N[C@@H](CCCCN)C(=O)N[C@@H](CCCNC(=N)N)C(=O)N[C@@H](CCCNC(=N)N)C(=O)N[C@@H](CCC(N)=O)C(=O)N[C@@H](CCCNC(=N)N)C(=O)N[C@@H](CCCNC(=N)N)C(=O)N[C@@H](CCCNC(=N)N)C(=O)N1CCC[C@H]1C(=O)N1CCC[C@H]1C(=O)N[C@@H](CCC(N)=O)C(=O)N[C@@H](CCC(N)=O)C(=O)O [fluorescein-labeled TAT monomer, 5-FAM-GRKKRRQRRR PPQQ-COOH], the “Concentration in the tumor versus the opposite side” value (9L glioma tumors [1]) is reported as 13 ×, the “Uptake in the tumor compared to adjacent regions” value (9L glioma tumors [1]) is reported as 5 × and the “Deposition, multiple arrest compared to single-arrest” value (9L glioma tumors [2]) is reported as “increases the amount of TAT deposition but also increases non-specific deposition”. For the same compound, the CBF ([3]; IA-TCH, 5 min) was 90 ± 32 % Δbase, the ETCO2 ([3]; IA-TCH, 5 min) was 71 ± 17 % Δbase and the HR ([3]; IA-TCH, 5 min) was 273 ± 59 BMP. For the same compound, the Isoflurane ([3]; IA-TCH, 5 min) was 1.8 ± 0.8 ET %, the SaO2 ([3]; IA-TCH, 5 min) was 95% and the “Sk · BF” value ([3]; IA-TCH, 5 min) was 104 ± 38 % Δbase. For the same compound, the Temp ([3]; IA-TCH, 5 min) was 36.6 ± 1.1 °C, the CBF ([3]; IA-TCH, Base) was 100 ± 0 % Δbase and the ETCO2 ([3]; IA-TCH, Base) was 100 ± 0 % Δbase. For the same compound, the HR ([3]; IA-TCH, Base) was 289 ± 19 BMP, the Isoflurane ([3]; IA-TCH, Base) was 2.2 ± 0.2 ET % and the SaO2 ([3]; IA-TCH, Base) was 98 ± 2%. For the same compound, the “Sk · BF” value ([3]; IA-TCH, Base) was 100 ± 0 % Δbase, the Temp ([3]; IA-TCH, Base) was 37.1 ± 1.3 °C and the CBF ([3]; IA-TCH, End) was 81 ± 13 % Δbase. It also gave an ETCO2 ([3]; IA-TCH, End) of 92 ± 27 % Δbase, an HR ([3]; IA-TCH, End) of 310 ± 11 BMP and an Isoflurane ([3]; IA-TCH, End) of 2.2 ± 0.4 ET %. The “Sk · BF” value ([3]; IA-TCH, End) was 92 ± 16 % Δbase, the Temp ([3]; IA-TCH, End) was 36.9 ± 1.1 °C and the CBF ([3]; IA-TCH, Injection) was 29 ± 26 % Δbase. It also gave an ETCO2 ([3]; IA-TCH, Injection) of 54 ± 50 % Δbase, an HR ([3]; IA-TCH, Injection) of 63 ± 41 BMP and an Isoflurane ([3]; IA-TCH, Injection) of 0.8 ± 0.9 ET %. The SaO2 ([3]; IA-TCH, Injection) was 92 ± 11 %, the “Sk · BF” value ([3]; IA-TCH, Injection) was 18 ± 10 % Δbase and the Temp ([3]; IA-TCH, Injection) was 36.6 ± 1.3 °C. For the same compound, the CBF ([3]; IV, 5 min) was 73 ± 13b % Δbase, the ETCO2 ([3]; IV, 5 min) was 85 ± 37 % Δbase and the HR ([3]; IV, 5 min) was 267 ± 68 BMP. The Isoflurane ([3]; IV, 5 min) was 2.1 ± 0.2 ET %, the SaO2 ([3]; IV, 5 min) was 97 ± 4% and the “Sk · BF” value ([3]; IV, 5 min) was 106 ± 28 % Δbase. It also gave a Temp ([3]; IV, 5 min) of 36.1 ± 0.9 °C, a CBF ([3]; IV, Base) of 100 ± 0 % Δbase and an ETCO2 ([3]; IV, Base) of 100 ± 0 % Δbase. It also gave an HR ([3]; IV, Base) of 267 ± 17 BMP, an Isoflurane ([3]; IV, Base) of 2.2 ± 0.3 ET % and a SaO2 ([3]; IV, Base) of 100 ± 5%. For the same compound, the “Sk · BF” value ([3]; IV, Base) was 100 ± 0 % Δbase, the Temp ([3]; IV, Base) was 35.9 ± 0.9 °C and the CBF ([3]; IV, End) was 73 ± 12b % Δbase. It also gave an ETCO2 ([3]; IV, End) of 86 ± 14 % Δbase, an HR ([3]; IV, End) of 283 ± 10 BMP and an Isoflurane ([3]; IV, End) of 2.1 ± 0.3 ET %. The SaO2 ([3]; IV, End) was 99 ± 2%, the “Sk · BF” value ([3]; IV, End) was 116 ± 30 % Δbase and the Temp ([3]; IV, End) was 36.5 ± 1.0 °C. The CBF ([3]; IV, Injection) was 122 ± 21 % Δbase, the ETCO2 ([3]; IV, Injection) was 75 ± 39 % Δbase and the HR ([3]; IV, Injection) was 274 ± 31 BMP. The Isoflurane ([3]; IV, Injection) was 0.4 ± 0.1 ET %, the SaO2 ([3]; IV, Injection) was 97 ± 4% and the “Sk · BF” value ([3]; IV, Injection) was 144 ± 50a,# % Δbase. For the same compound, the Temp ([3]; IV, Injection) was 35.9 ± 0.9 °C, the Contralateral fluorescence (9L glioma; IA-TCH) was 161 ± 94 AU and the Ipsi-lateral fluorescence (9L glioma; IA-TCH) was 353 ± 76 AU. For the same compound, the Ipsi/contralateral ratio (9L glioma; IA-TCH) was 2.7 ± 1.4, the Tumor fluorescence (9L glioma; IA-TCH) was 1758 ± 474 AU and the Tumor/contralateral ratio (9L glioma; IA-TCH) was 13.8 ± 7.6. The Tumor/ipsi-lateral ratio (9L glioma; IA-TCH) was 4.9 ± 0.7, the Contralateral fluorescence (9L glioma; IV) was 205 ± 67 AU and the Ipsi-lateral fluorescence (9L glioma; IV) was 216 ± 65 AU. It also gave an Ipsi/contralateral ratio (9L glioma; IV) of 1.1 ± 0.5, a Tumor fluorescence (9L glioma; IV) of 528 ± 246 AU and a Tumor/contralateral ratio (9L glioma; IV) of 3.0 ± 1.4. For the same compound, the Tumor/ipsi-lateral ratio (9L glioma; IV) was 2.4 ± 1.1 and the “Deposition in tumor (semi-quantitative fluorescence imaging)” value (C6 glioma) was “preferentially targeted to the tumor mass in all animals”.
